Source: PubChem BioAssay (NCI)
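Test compounds were applied to cells in 96-well plates for 48 hours at 5 doses. GI50 is the concentration that inhibits growth by half. TGI: concentration producing complete growth inhibition.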

Experiments:
Test in all cases: growth of human tumour cells (NCI), 48 h
SNB-75 CNS = test system: SNB-75 CNS
TK-10 renal = test system: TK-10 renal
SK-MEL-28 melanoma = test system: SK-MEL-28 melanoma
CAKI-1 renal = test system: CAKI-1 renal
NCI-H522 lung = test system: NCI-H522 lung
OVCAR-5 ovarian = test system: OVCAR-5 ovarian
HOP-62 NSCLC = test system: HOP-62 NSCLC
UACC-257 melanoma = test system: UACC-257 melanoma
DU-145 prostate = test system: DU-145 prostate
PC-3 prostate = test system: PC-3 prostate

Structure (SMILES)	TGI (SNB-75 CNS)	TGI (TK-10 renal)	TGI (SK-MEL-28 melanoma)	TGI (CAKI-1 renal)	TGI (NCI-H522 lung)	TGI (OVCAR-5 ovarian)	TGI (HOP-62 NSCLC)	TGI (UACC-257 melanoma)	GI50 (OVCAR-5 ovarian)	GI50 (DU-145 prostate)	TGI (DU-145 prostate)	GI50 (SK-MEL-28 melanoma)	GI50 (CAKI-1 renal)	GI50 (PC-3 prostate)	TGI (PC-3 prostate)	GI50 (UACC-257 melanoma)	GI50 (NCI-H522 lung)	GI50 (SNB-75 CNS)	GI50 (TK-10 renal)
COc1cccc(C2C(C(=O)O)=C(CO)Oc3cc4c(cc32)OCO4)c1 (stereo unspecified)	> 100 µM	> 100 µM	> 100 µM	> 100 µM	> 100 µM														
COc1ccc2c(c1)O[C@H]1c3ccc(O)cc3OC[C@@H]21	47.1 µM	> 100 µM		> 100 µM	79.4 µM	> 100 µM	> 100 µM	52.5 µM											
O=C(N1CCC(CN=c2cc3n(-c4ccc(Cl)cc4)c4ccccc4nc-3cc2Nc2ccc(Cl)cc2)CC1)N1CC1			0.981 µM	3.88 µM	2.73 µM	3.39 µM		1.89 µM	1.85 µM	1.3 µM	2.65 µM	0.519 µM	1.38 µM	1.63 µM	3.38 µM	0.605 µM	1.32 µM		
O=NNc1cnccn1	> 1250 µM	> 1250 µM	> 1250 µM	> 1250 µM	> 1250 µM	> 1250 µM	265 µM	> 1250 µM			> 1250 µM				> 1250 µM				
BrCCC[P+](c1ccccc1)(c1ccccc1)c1ccccc1	59.2 µM	> 100 µM	> 100 µM	> 100 µM	> 27.5 µM	> 100 µM	> 100 µM	48.3 µM			> 100 µM				> 100 µM				
CCN(CC)CCC(=O)c1ccccc1	38.8 µM	43.4 µM	33 µM			40.9 µM	> 100 µM	61.4 µM											
CCOC(=O)C1(C(=O)OCC)CSC1	> 100 µM	> 100 µM	> 100 µM		> 100 µM			> 100 µM			> 100 µM				> 100 µM				
CCSc1nc(N2CCCCC2)c2cn[nH]c2n1	> 100 µM	> 100 µM	> 100 µM	59.7 µM	> 100 µM	> 100 µM		> 100 µM	88.7 µM	18.4 µM	75.5 µM	57.6 µM	19.8 µM	20.7 µM	79.1 µM	58.7 µM	30.7 µM	74.9 µM	36.8 µM
CC(=O)NC(CCCCNC(=O)OC(C)(C)C)C(=O)O (stereo unspecified)		> 100 µM	> 100 µM	> 100 µM	> 100 µM	> 100 µM	> 100 µM	> 100 µM			> 100 µM				> 100 µM				
COC(=O)C1=COC2OC3/C(=C\c4ccc(O)c(OC)c4)C(=O)OC34C=CC1C24 (stereo unspecified)	25.2 µM	31 µM	33.7 µM	41.7 µM	28.8 µM	32.6 µM	39.5 µM	32.5 µM											
CN(C)CS/C(N)=N\C(O)C(Cl)(Cl)Cl (stereo unspecified)	> 100 µM	> 100 µM	> 100 µM	> 100 µM	> 100 µM	> 100 µM	> 100 µM	> 100 µM			> 100 µM				> 100 µM				
Cn1c(=O)c2c(ncn2CCSS(=O)(=O)O)n(C)c1=O	> 100 µM	> 100 µM	> 100 µM	> 100 µM	> 100 µM	> 100 µM	> 100 µM	> 100 µM			> 100 µM				> 100 µM				
CC(=O)[O-].[Ni].c1ccc(/C(=N\Nc2ccccn2)c2ccccn2)cc1	46.1 µM	20.7 µM	18.8 µM	39.3 µM	20.9 µM	47.3 µM	30.1 µM	23.2 µM			25.1 µM				19.9 µM				
CC(=O)[O-].CC(=O)[O-].O=C(N/N=C/c1cc(Cl)cc(Cl)c1[OH2+])c1ccncc1.[Zn+2]	> 100 µM	> 100 µM	> 100 µM		> 100 µM	> 100 µM	> 100 µM	> 100 µM											
c1ccc(SC(Sc2ccccc2)c2ccc3c(c2)OCO3)cc1		> 100 µM	> 100 µM	> 100 µM	> 100 µM	> 100 µM	> 100 µM	> 100 µM			> 100 µM				> 100 µM				
CCOc1ccc(N=Nc2ccc3oc(=O)c(/C(C)=N\NC(=O)CC(=O)Nc4ccc(Cl)cc4)cc3c2)cc1		35.5 µM	> 100 µM	> 100 µM	50.1 µM	> 100 µM	36.4 µM												
O=C(O)c1cncc(C(=O)O)c1	> 100 µM	> 100 µM	> 100 µM	> 100 µM	> 100 µM	> 100 µM	> 100 µM	> 100 µM			> 100 µM				> 100 µM				
O=c1[nH]cc(N(CCCl)CCCl)c(=O)[nH]1	162 µM	325 µM	204 µM	56.7 µM	60.9 µM	186 µM	81.7 µM	159 µM			303 µM				188 µM				
C=C(CN(C)C)C(=O)c1cc(C)ccc1C	43.4 µM	20.4 µM	42.5 µM	11.8 µM	1.52 µM	31.2 µM	33.8 µM	26 µM			22 µM				28.2 µM				
